Data reported in US20250236629A1, “MEDIUM- OR MACRO-CYCLIC BENZYL-SUBSTITUTED HETEROCYCLE DERIVATIVES AND RELATED USES” (CENTESSA PHARMACEUTICALS (UK) LIMITED, priority 2022, published 2025).

Biological target: T1, human orexin type 2 receptor (hOX2R) (Homo sapiens, UniProt O43614)
T1 construct: the Orexin receptor cDNA was inserted into pcDNA3.1(+) plasmid vector; expressed in transfected cells
T1 sequence (O43614 1-444): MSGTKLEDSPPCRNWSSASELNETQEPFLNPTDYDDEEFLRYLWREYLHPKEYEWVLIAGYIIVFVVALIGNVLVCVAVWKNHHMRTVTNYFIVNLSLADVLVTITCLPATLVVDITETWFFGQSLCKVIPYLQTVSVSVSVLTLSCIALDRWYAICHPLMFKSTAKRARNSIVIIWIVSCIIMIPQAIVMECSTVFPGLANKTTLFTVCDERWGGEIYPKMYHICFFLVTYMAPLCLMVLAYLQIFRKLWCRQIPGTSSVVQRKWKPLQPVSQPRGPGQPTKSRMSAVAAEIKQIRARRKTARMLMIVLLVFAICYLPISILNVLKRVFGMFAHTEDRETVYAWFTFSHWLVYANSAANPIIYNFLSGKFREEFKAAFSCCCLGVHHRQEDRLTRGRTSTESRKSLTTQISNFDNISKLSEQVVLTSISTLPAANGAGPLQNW
Test: Orexin type 2 receptor agonist activity, intracellular Ca2+ (FLIPR TETRA) in CHO cells
Assay type: cell-based
Conditions: CHO cells expressing hOX2R; Ca2+ fluorescence area; 100% = 10 nM human orexin A
Experimental: Stable cell line generation. Obtainment of cells stably expressing either human orexin type 2 or human orexin type 1 receptor: to obtain a stable cell line the Orexin receptor cDNA was inserted into pcDNA3.1(+) plasmid vector and clones identified by G418 drug resistance selection. […] A single clone for OX2R—CHO and OX1R—CHO were grown in bulk and frozen to generate a cell bank for routine screening.
Measurement of orexin type 2 receptor agonist activity. Chinese hamster ovary (CHO) cells expressing human orexin type 2 receptor (hOX2R) or human orexin type 1 receptor (hOX1R) were seeded in each well of 384 well black clear bottom plates (BD Flacon) at 10,000 cells per well and cultured for 24 hr in an Ham's F12 (Gibco) medium containing 10% fetal calf serum (Sigma Aldrich) under the conditions of 37° C., 5% CO2. After removal of the medium, 50 μl of assay buffer 1 (0.1% bovine serum albumin (Sigma Aldrich), 20 mM HEPES (Molecular Dimensions), […] probenecid (Sigma Aldrich), 1× Calcium 5 dye (Molecular Devices) in Hank's balanced salt solution (Invitrogen)) was added, and the cells were incubated for 60 min under the conditions of 37° C., 5% CO2. A test compound was dissolved in dimethyl sulfoxide (Sigma Aldrich) to 10 mM, and then diluted with assay buffer 2 (20 mM HEPES, Hank's balanced salt solution, 0.1% bovine serum albumin). For the reaction, a test compound solution (10 μl) was added using Fluorescent Imaging Plate Reader TETRA (FLIPR TETRA: manufactured by Molecular Devices), a fluorescence value (excitation wavelength 488 nm, measurement wavelength 570 nm) of each well was measured every one second for 2 min, and the agonist activity was determined using the area of the fluorescence value as an indicator of intracellular Ca^2+ concentration. The agonist activity of the test compound was calculated assuming that the fluorescence value of the well added with only the dilution buffer was 0% and the fluorescence value of the well added with 10 nM human orexin A (Tocris) buffer was 100%.
Values of hOx2 pEC50 in Table B are presented in ranges, in which 6.0≤“+”<7.0, 7.0≤“++”<8.0, 8.0≤“+++”<9.0, and 9.0≤“++++”<10.4.

| hOx2 pEC50 | Compound |
| --- | --- |
| +++ (8.0≤“+++”<9.0) | N-((2′S,3′S)-3′-fluoro-6′-methyl-5′-oxospiro[cyclopropane-1,4′-9-oxa-6-aza-4(2,1)-pyrrolidina-1(1,2),2(1,3)-dibenzenacyclononaphan]-3′-yl)ethanesulfonamide [Example 19] |

Same assay, conditions: CHO cells expressing hOX2R; Ca2+ fluorescence area; 100% = 10 nM human orexin A; read-out: hOx2 pEC50 (converted)

| EC50 [nM] | Compound |
| --- | --- |
| 0.0398 to 1 | CN1CCOc2c(F)cccc2-c2cccc(c2F)C[C@H]2[C@@H](NS(=O)(=O)CF)C3(CC3)CN2C1=O [Example 8, N-((2′S,3′S)-2′,3′-difluoro-6′-methyl-5′-oxospiro[cyclopropane-1,4′-9-oxa-6-aza-4(2,1)-pyrrolidina-1(1,2),2(1,3)-dibenzenacyclononaphan]-3′-yl)-1-fluoromethanesulfonamide] |
| 10 to 100 | CN1CCOc2c(F)cc(F)cc2-c2cccc(c2)C[C@H]2[C@@H](NS(=O)(=O)C(F)F)C3(CC3)CN2C1=O [Example 31, N-((2′S,3′S)-3′,5′-difluoro-6′-methyl-5′-oxospiro[cyclopropane-1,4′-9-oxa-6-aza-4(2,1)-pyrrolidina-1(1,2),2(1,3)-dibenzenacyclononaphan]-3′-yl)-1,1-difluoromethanesulfonamide] |
| 1 to 10 | CN1CCOc2ccccc2-c2cccc(c2F)C[C@H]2[C@@H](NS(=O)(=O)C(F)F)C3(CC3)CN2C1=O [Example 4, 1,1-difluoro-N-((2′S,3′S)-2′-fluoro-6′-methyl-5′-oxospiro[cyclopropane-1,4′-9-oxa-6-aza-4(2,1)-pyrrolidina-1(1,2),2(1,3)-dibenzenacyclononaphan]-3′-yl)methanesulfonamide] |
| 1 to 10 | CCS(=O)(=O)N[C@H]1[C@@H](F)CN2C(=O)N(C)CCOc3ccccc3-c3cccc(c3F)C[C@@H]12 [Example 17, N-((4^2S,4^3R,4^4S)-2^2,4^4-difluoro-6-methyl-5-oxo-9-oxa-6-aza-4(2,1)-pyrrolidina-1(1,2),2(1,3)-dibenzenacyclononaphane-4^3-yl)ethanesulfonamide] |
| 1 to 10 | CCS(=O)(=O)N[C@H]1[C@@H](F)CN2C(=O)N(C)CCOc3c(F)cccc3-c3cccc(c3F)C[C@@H]12 [Example 18, N-((4^2S,4^3R,4^4S)-1^3,2^2,4^4-trifluoro-6-methyl-5-oxo-9-oxa-6-aza-4(2,1)-pyrrolidina-1(1,2),2(1,3)-dibenzenacyclononaphane-4^3-yl)ethanesulfonamide] |
| 10 to 100 | CN1CCOc2c(F)cccc2-c2cccc(c2)C[C@H]2[C@@H](NS(=O)(=O)CF)C3(CC3)CN2C1=O [Example 30, 1-fluoro-N-((2′S,3′S)-3′-fluoro-6′-methyl-5′-oxospiro[cyclopropane-1,4′-9-oxa-6-aza-4(2,1)-pyrrolidina-1(1,2),2(1,3)-dibenzenacyclononaphan]-3′-yl)methanesulfonamide] |
| 10 to 100 | C[C@H]1CN2C(=O)N(C)CCOc3ccccc3-c3cccc(c3F)C[C@H]2[C@H]1NS(=O)(=O)CF [Example 2, 1-fluoro-N-((4^2S,4^3S,4^4S)-2^2-fluoro-4^4,6-dimethyl-5-oxo-9-oxa-6-aza-4(2,1)-pyrrolidina-1(1,2),2(1,3)-dibenzenacyclononaphane-4^3-yl)methanesulfonamide] |
| 1 to 10 | CN1CCOc2c(F)cccc2-c2cccc(c2)C[C@H]2[C@@H](NS(=O)(=O)C(F)F)C3(CC3)CN2C1=O [Example 34] |
| 1 to 10 | CN1CCOc2c(F)cccc2-c2cccc(c2)C[C@H]2[C@@H](NS(=O)(=O)CF)[C@@H](F)CN2C1=O [Example 21, N-((4^2S,4^3R,4^4S)-1^3,4^4-difluoro-6-methyl-5-oxo-9-oxa-6-aza-4(2,1)-pyrrolidina-1(1,2),2(1,3)-dibenzenacyclononaphane-4^3-yl)-1-fluoromethanesulfonamide] |
| 1 to 10 | CCS(=O)(=O)N[C@@H]1[C@@H]2Cc3cccc(c3)-c3ccccc3OCCN(C)C(=O)N2CC1(F)F [Example 23, N-((4^2S,4^3R)-4^4,4^4-difluoro-6-methyl-5-oxo-9-oxa-6-aza-4(2,1)-pyrrolidina-1(1,2),2(1,3)-dibenzenacyclononaphane-4^3-yl)ethanesulfonamide] |
| 1 to 10 | CN1CCOc2c(F)cc(F)cc2-c2cccc(c2F)C[C@H]2[C@@H](NS(=O)(=O)CF)C3(CC3)CN2C1=O [Example 40, 1-fluoro-N-((2′S,3′S)-2′,3′,5′-trifluoro-6′-methyl-5′-oxospiro[cyclopropane-1,4′-9-oxa-6-aza-4(2,1)-pyrrolidina-1(1,2),2(1,3)-dibenzenacyclononaphan]-3′-yl)methanesulfonamide] |
| 1 to 10 | CCS(=O)(=O)N[C@H]1[C@@H](F)CN2C(=O)CCOc3ccccc3-c3cccc(c3F)C[C@@H]12 [Example 29, N-((4^2S,4^3R,4^4S)-2^2,4^4-difluoro-5-oxo-8-oxa-4(2,1)-pyrrolidina-1(1,2),2(1,3)-dibenzenacyclooctaphane-4^3-yl)ethanesulfonamide] |
| 1 to 10 | CC(C)(F)S(=O)(=O)N[C@H]1CCCN2C(=O)CCOc3ccccc3-c3cccc(c3F)C[C@@H]12 [Example 33, 2-fluoro-N-((4^2S,4^3S)-2^2-fluoro-5-oxo-8-oxa-4(2,1)-piperidina-1(1,2),2(1,3)-dibenzenacyclooctaphane-4^3-yl)propane-2-sulfonamide] |
| 10 to 100 | CN1CCOc2c(F)cc(F)cc2-c2cccc(c2F)C[C@H]2[C@@H](NS(=O)(=O)C(F)F)[C@@H](F)CN2C1=O [Example 11, 1,1-difluoro-N-((4^2S,4^3R,4^4S)-1^3,1^5,2^2,4^4-tetrafluoro-6-methyl-5-oxo-9-oxa-6-aza-4(2,1)-pyrrolidina-1(1,2),2(1,3)-dibenzenacyclononaphane-4^3-yl)methanesulfonamide] |
| 1 to 10 | CC(C)S(=O)(=O)N[C@H]1[C@@H](F)CN2C(=O)N(C)CCOc3ccccc3-c3cccc(c3F)C[C@@H]12 [Example 35, N-((4^2S,4^3R,4^4S)-2^2,4^4-difluoro-6-methyl-5-oxo-9-oxa-6-aza-4(2,1)-pyrrolidina-1(1,2),2(1,3)-dibenzenacyclononaphane-4^3-yl)propane-2-sulfonamide] |
| 0.0398 to 1 | CCN1CCOc2ccccc2-c2cccc(c2)C[C@H]2[C@@H](NS(=O)(=O)CF)C3(CC3)CN2C1=O [Example 37, N-((2′S,3′S)-6′-ethyl-5′-oxospiro[cyclopropane-1,4′-9-oxa-6-aza-4(2,1)-pyrrolidina-1(1,2),2(1,3)-dibenzenacyclononaphan]-3′-yl)-1-fluoromethanesulfonamide] |
| 1 to 10 | O=C1CCOc2ccccc2-c2cccc(c2F)C[C@H]2[C@@H](NS(=O)(=O)C3(F)CC3)CCCN12 [Example 36, 1-fluoro-N-((4^2S,4^3S)-2^2-fluoro-5-oxo-8-oxa-4(2,1)-piperidina-1(1,2),2(1,3)-dibenzenacyclooctaphane-4^3-yl)cyclopropane-1-sulfonamide] |
| 1 to 10 | O=C1CCOc2ccccc2-c2cccc(c2)C[C@H]2[C@@H](NS(=O)(=O)C3(F)CC3)[C@@H](F)CCN12 [Example 45, 1-fluoro-N-((4^2S,4^3R,4^4S)-4^4-fluoro-5-oxo-8-oxa-4 (2,1)-piperidina-1 (1,2),2 (1,3)-dibenzenacyclooctaphane-4^3-yl)cyclopropane-1-sulfonamide] |
| 1 to 10 | CCS(=O)(=O)N[C@@H]1[C@@H]2Cc3cccc(c3F)-c3cccc(F)c3OCCN(C)C(=O)N2CC12CC2 [Example 9, N-((2′S,3′S)-2′,3′-difluoro-6′-methyl-5′-oxospiro[cyclopropane-1,4′-9-oxa-6-aza-4(2,1)-pyrrolidina-1(1,2),2(1,3)-dibenzenacyclononaphan]-3′-yl)ethanesulfonamide] |
| 1 to 10 | CN1CCOc2c(F)cc(F)cc2-c2cccc(c2F)C[C@H]2[C@@H](NS(=O)(=O)C(F)F)C3(CC3)CN2C1=O [Example 39, 1,1-difluoro-N-((2′S,3′S)-2′,3′,5′-trifluoro-6′-methyl-5′-oxospiro[cyclopropane-1,4′-9-oxa-6-aza-4(2,1)-pyrrolidina-1(1,2),2(1,3)-dibenzenacyclononaphan]-3′-yl)methanesulfonamide] |
